Results: US7138361B2, “Herbicidal heterocycles” (E. I. du Pont de Nemours and Company, priority 2000, dated 2006)

Assays:
Format in all cases: in vivo
[1] = tested on: crabgrass (Digitaria sanguinalis); experiment: Test B postemergence
How it was run: (§1)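 Greenhouse test: chemicals are formulated in a surfactant-containing non-phytotoxic solvent and applied either preemergence to planted seeds or postemergence to plants 2 to 18 cm tall. Response is rated visually versus controls after 13 to 15 days, 0 meaning no effect and 100 complete control.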

[2] = tested on: velvetleaf (Abutilon theophrasti); experiment: Test B postemergence
How it was run: as §1

[3] = tested on: blackgrass (Alopecurus myosuroides); experiment: Test B postemergence
How it was run: as §1

[4] = tested on: giant foxtail (Setaria faberii); experiment: Test B postemergence
How it was run: as §1

[5] = tested on: morning glory (Ipomoea hederacea); experiment: Test B postemergence
How it was run: as §1

[6] = tested on: wheat (Triticum aestivum); experiment: Test B postemergence
How it was run: as §1

corn (Zea mays) [7] = experiment: Test B postemergence
How it was run: as §1

[8] = tested on: cocklebur (Xanthium strumarium); experiment: Test B postemergence
How it was run: as §1

[9] = tested on: Surinam grass (Brachiaria decumbens); experiment: Test B postemergence
How it was run: as §1

wild oat (Avena fatua) = experiment: Test B postemergence
How it was run: as §1

[10] = tested on: barnyardgrass (Echinochloa crus-galli); experiment: Test B postemergence
How it was run: as §1

[11] = tested on: lambsquarters (Chenopodium album); experiment: Test B postemergence
How it was run: as §1

[12] = tested on: pigweed (Amaranthus retroflexus); experiment: Test B postemergence
How it was run: as §1

[13] = tested on: crabgrass (Digitaria sanguinalis); experiment: Test B preemergence
How it was run: as §1

[14] = tested on: velvetleaf (Abutilon theophrasti); experiment: Test B preemergence
How it was run: as §1

[15] = tested on: giant foxtail (Setaria faberii); experiment: Test B preemergence
How it was run: as §1

[16] = tested on: morning glory (Ipomoea hederacea); experiment: Test B preemergence
How it was run: as §1

corn (Zea mays) [17] = experiment: Test B preemergence
How it was run: as §1

[18] = tested on: cocklebur (Xanthium strumarium); experiment: Test B preemergence
How it was run: as §1

rice (Oryza saliva) [19] = experiment: Test B preemergence
How it was run: as §1

[20] = tested on: Surinam grass (Brachiaria decumbens); experiment: Test B preemergence
How it was run: as §1

[21] = tested on: barnyardgrass (Echinochloa crus-galli); experiment: Test B preemergence
How it was run: as §1

[22] = tested on: lambsquarters (Chenopodium album); experiment: Test B preemergence
How it was run: as §1

[23] = tested on: pigweed (Amaranthus retroflexus); experiment: Test B preemergence
How it was run: as §1

[24] = tested on: duck salad (Heteranthera limosa); experiment: Test C flooded paddy test; details: for Ducksalad plant response rating: Flooded Paddy, scale 0 to 100, 0 no effect, 100 complete control; for Plant response rating, Ducksalad: scale 0 to 100 (0 no effect, 100 complete control)
How it was run: (§2)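 Rice and three paddy weeds were grown to the 2-leaf stage under flooded conditions, then treated and kept in a greenhouse for 12–14 days. Response was rated visually against untreated controls on a 0–100 scale, where 100 is complete control.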

[25] = tested on: smallflower flatsedge (Cyperus difformis); experiment: Test C flooded paddy test; details: for Flatsedge plant response rating: Flooded Paddy, scale 0 to 100, 0 no effect, 100 complete control; for Plant response rating, Flatsedge: scale 0 to 100 (0 no effect, 100 complete control)
How it was run: as §2

rice (Oryza saliva) [26] = experiment: Test C flooded paddy test; details: for Rice plant response rating: Flooded Paddy, scale 0 to 100, 0 no effect, 100 complete control; for Plant response rating, Rice: scale 0 to 100 (0 no effect, 100 complete control)
How it was run: as §2

[27] = tested on: barnyardgrass (Echinochloa crus-galli); experiment: Test C flooded paddy test; details: for Barnyardgrass plant response rating: Flooded Paddy, scale 0 to 100, 0 no effect, 100 complete control; for Plant response rating, Barnyardgrass: scale 0 to 100 (0 no effect, 100 complete control)
How it was run: as §2

[28] = Rate 125 g/ha, scale 0 (no effect) to 100 (complete control), 13 to 15 days
[29] = Rate 500 g/ha, scale 0 to 100, 0 is no effect, 100 is complete control, 13 to 15 days
[30] = Preemergence, Rate 500 g/ha, scale 0 to 100, 0 no effect, 100 complete control
[31] = preemergence, Rate 125 g/ha, scale of 0 to 100 where 0 is no effect and 100 is complete control, 13 to 15 days
[32] = flooded paddy test, Rate 62 g/ha
[33] = flooded paddy test, Rate 125 g/ha
[34] = Rate 125 g/ha, scale 0 to 100, 0 no effect, 100 complete control
[35] = flooded paddy test, Rate 250 g/ha
[36] = flooded paddy test, Rate 62 g/ha, visually evaluated after 12 to 14 days, 0 = no effect, 100 = complete control

## Cc1cc(N2CCC(n3ccc(C(C)(C)C)n3)C2=O)cc(Br)c1C (stereo not drawn) [Compound 77]
[1]; [28]
  Plant response rating, Crabgrass: 0
[1]; [29]
  Plant response rating, Crabgrass: 0
[2]; [28]
  Plant response rating, Velvetleaf: 0
[2]; [29]
  Plant response rating, Velvetleaf: 0
[3]; [28]
  Plant response rating, Blackgrass: 0
[3]; [29]
  Plant response rating, Blackgrass: 0
[4]; [28]
  Plant response rating, Foxtail, Giant: 0
[4]; [29]
  Plant response rating, Foxtail, Giant: 0
[5]; [28]
  Plant response rating, Morningglory: 0
[5]; [29]
  Plant response rating, Morningglory: 0
[6]; [28]
  Plant response rating, Wheat: 0
[6]; [29]
  Plant response rating, Wheat: 0
Corn (Zea mays) [7]; [28]
  Plant response rating, Corn: 0
Corn (Zea mays) [7]; [29]
  Plant response rating, Corn: 0
[8]; [28]
  Plant response rating, Cocklebur: 0
[8]; [29]
  Plant response rating, Cocklebur: 20
[9]; [28]
  Plant response rating, Surinam grass: 0
[9]; [29]
  Plant response rating, Surinam grass: 0
Wild oat (Avena fatua); [28]
  Plant response rating, Wild Oat: 0
Wild oat (Avena fatua); [29]
  Plant response rating, Wild Oat: 0
[10]; [28]
  Plant response rating, Barnyardgrass: 0
[10]; [29]
  Plant response rating, Barnyardgrass: 0
[11]; [28]
  Plant response rating, Lambsquarters: 0
[11]; [29]
  Plant response rating, Lambsquarters: 20
[12]; [28]
  Plant response rating, Pigweed: 70
[12]; [29]
  Plant response rating, Pigweed: 80
[13]; [30]
  Plant response rating, Crabgrass: 90
[13]; [31]
  Plant response rating, Crabgrass: 60
[14]; [30]
  Plant response rating, Velvetleaf: 0
[14]; [31]
  Plant response rating, Velvetleaf: 0
[15]; [30]
  Plant response rating, Foxtail, Giant: 0
[15]; [31]
  Plant response rating, Foxtail, Giant: 0
[16]; [30]
  Plant response rating, Morningglory: 0
[16]; [31]
  Plant response rating, Morningglory: 0
Corn (Zea mays) [17]; [30]
  Plant response rating, Corn: 0
Corn (Zea mays) [17]; [31]
  Plant response rating, Corn: 0
[18]; [30]
  Plant response rating, Cocklebur: 0
[18]; [31]
  Plant response rating, Cocklebur: 0
Rice (Oryza saliva) [19]; [30]
  Plant response rating, Rice: 0
Rice (Oryza saliva) [19]; [31]
  Plant response rating, Rice: 0
[20]; [30]
  Plant response rating, Surinam grass: 40
[20]; [31]
  Plant response rating, Surinam grass: 0
[21]; [30]
  Plant response rating, Barnyardgrass: 100
[21]; [31]
  Plant response rating, Barnyardgrass: 20
[22]; [30]
  Plant response rating, Lambsquarters: 100
[22]; [31]
  Plant response rating, Lambsquarters: 90
[23]; [30]
  Plant response rating, Pigweed: 100
[23]; [31]
  Plant response rating, Pigweed: 90
[24]; Rate 250 g/ha
  Ducksalad plant response rating: 0
[24]; Rate 500 g/ha
  Ducksalad plant response rating: 30
[24]; [32]
  Plant response rating, Ducksalad: 0
[24]; [33]
  Plant response rating, Ducksalad: 0
[25]; Rate 250 g/ha
  Flatsedge plant response rating: 80
[25]; Rate 500 g/ha
  Flatsedge plant response rating: 80
[25]; [32]
  Plant response rating, Flatsedge: 70
[25]; [33]
  Plant response rating, Flatsedge: 70
Rice (Oryza saliva) [26]; Rate 250 g/ha
  Rice plant response rating: 0
Rice (Oryza saliva) [26]; Rate 500 g/ha
  Rice plant response rating: 30
Rice (Oryza saliva) [26]; [32]
  Plant response rating, Rice: 0
Rice (Oryza saliva) [26]; [33]
  Plant response rating, Rice: 0
[27]; Rate 250 g/ha
  Barnyardgrass plant response rating: 0
[27]; Rate 500 g/ha
  Barnyardgrass plant response rating: 20
[27]; [32]
  Plant response rating, Barnyardgrass: 0
[27]; [33]
  Plant response rating, Barnyardgrass: 0

## COc1cc(N2CCC(n3ccc(C(C)(C)C)n3)C2=O)cc2ccccc12 (stereo not drawn) [Compound 136]
[1]; [34]
  Plant response rating, Crabgrass: 0
[2]; [34]
  Plant response rating, Velvetleaf: 0
[3]; [34]
  Plant response rating, Blackgrass: 0
[3]; [29]
  Plant response rating, Blackgrass: 0
[4]; [34]
  Plant response rating, Foxtail, Giant: 0
[5]; [34]
  Plant response rating, Morningglory: 0
[6]; [34]
  Plant response rating, Wheat: 0
Corn (Zea mays) [7]; [34]
  Plant response rating, Corn: 0
Corn (Zea mays) [7]; [29]
  Plant response rating, Corn: 0
[8]; [34]
  Plant response rating, Cocklebur: 0
[8]; [29]
  Plant response rating, Cocklebur: 0
[9]; [34]
  Plant response rating, Surinam grass: 0
[9]; [29]
  Plant response rating, Surinam grass: 0
Wild oat (Avena fatua); [34]
  Plant response rating, Wild Oat: 0
[10]; [34]
  Plant response rating, Barnyardgrass: 0
[10]; [29]
  Plant response rating, Barnyardgrass: 0
[11]; [34]
  Plant response rating, Lambsquarters: 0
[12]; [34]
  Plant response rating, Pigweed: 0
[13]; [30]
  Plant response rating, Crabgrass: 70
[13]; [31]
  Plant response rating, Crabgrass: 0
[14]; [30]
  Plant response rating, Velvetleaf: 0
[14]; [31]
  Plant response rating, Velvetleaf: 0
[15]; [30]
  Plant response rating, Foxtail, Giant: 0
[15]; [31]
  Plant response rating, Foxtail, Giant: 0
[16]; [30]
  Plant response rating, Morningglory: 0
[16]; [31]
  Plant response rating, Morningglory: 0
Corn (Zea mays) [17]; [30]
  Plant response rating, Corn: 0
Corn (Zea mays) [17]; [31]
  Plant response rating, Corn: 0
[18]; [30]
  Plant response rating, Cocklebur: 0
[18]; [31]
  Plant response rating, Cocklebur: 0
Rice (Oryza saliva) [19]; [30]
  Plant response rating, Rice: 0
Rice (Oryza saliva) [19]; [31]
  Plant response rating, Rice: 0
[20]; [30]
  Plant response rating, Surinam grass: 0
[20]; [31]
  Plant response rating, Surinam grass: 0
[21]; [30]
  Plant response rating, Barnyardgrass: 0
[21]; [31]
  Plant response rating, Barnyardgrass: 0
[22]; [30]
  Plant response rating, Lambsquarters: 100
[22]; [31]
  Plant response rating, Lambsquarters: 100
[23]; [30]
  Plant response rating, Pigweed: 60
[23]; [31]
  Plant response rating, Pigweed: 0
[24]; Rate 500 g/ha
  Ducksalad plant response rating: 0
[24]; [33]
  Plant response rating, Ducksalad: 0
[24]; [35]
  Plant response rating, Ducksalad: 0
[24]; [36]
  Plant response rating (scale 0 to 100), Ducksalad: 0
[25]; Rate 500 g/ha
  Flatsedge plant response rating: 0
[25]; [33]
  Plant response rating, Flatsedge: 0
[25]; [35]
  Plant response rating, Flatsedge: 0
[25]; [36]
  Plant response rating (scale 0 to 100), Flatsedge: 0
Rice (Oryza saliva) [26]; Rate 500 g/ha
  Rice plant response rating: 0
Rice (Oryza saliva) [26]; [33]
  Plant response rating, Rice: 0
Rice (Oryza saliva) [26]; [35]
  Plant response rating, Rice: 0
Rice (Oryza saliva) [26]; [36]
  Plant response rating (scale 0 to 100), Rice: 0
[27]; Rate 500 g/ha
  Barnyardgrass plant response rating: 0
[27]; [33]
  Plant response rating, Barnyardgrass: 0
[27]; [35]
  Plant response rating, Barnyardgrass: 0
[27]; [36]
  Plant response rating (scale 0 to 100), Barnyardgrass: 0
